In patent publication US10814115B2, “Microneedle devices and uses thereof” (MASSACHUSETTS INSTITUTE OF TECHNOLOGY, priority 2011, dated 2020):
Read-outs that look alike come from different tables or passages of the source.

Columns and labels:
[1] = tested on: Yorkshire swine
Protocol: Yorkshire swine approximately 70 kg in weight were fasted overnight. The animal was sedated and a femoral venous catheter placed to enable frequent blood sampling for glucose monitoring. An endoscope was introduced orally or rectally depending on the tissue being accessed. Oral access for the stomach and small intestine and rectal access for the colon.
Glucose levels were monitored by frequent blood sampling via the femoral venous catheter with the aid of a glucometer.
This was administered with the use of a Carr-Locke needle which is 500 μm in length and 514 μm in diameter. Frequent blood glucose monitoring was performed via the use of a central line (femoral venous catheter).
To further validate the delivery of biologics at different segment we further evaluated the use of microinjection in the duodenum (the first part of the small intestine). Here the pH ranges from 5.5-7 and there are a broader range of proteases.
This was again administered with the use of the Carr-Locke needle. Frequent blood glucose monitoring was performed via the use of a central line (femoral venous catheter).
This was administered with the use of the microneedle prototype shown previously. Frequent blood glucose monitoring was performed via the use of a central line (femoral venous catheter).

[2] = tested on: Yorkshire swine; conditions: 100 units in 10 ml saline enema
Description: In order to evaluate the efficacy of abrasion and drug delivery a Yorkshire swine animal 70 kg in weight was fasted overnight. The animal was sedated and a central venous line was placed for frequent blood sampling. The rectum was cleansed with a tap water enema and an abrasion created in the rectal mucosa.

[3] = cited from earlier work
[4] = Visualization study: dye injection into 1.5% porcine gelatin with the microneedle prototype device; conditions: 0.025% dye
Protocol: Using porcine gelatin, the effects of a microneedle prototype device was evaluated. Specifically, porcine gelatin was prepared at a concentration of 1.5% to mimic the density of gastrointestinal tissue. The gelatin provided the added benefit of allowing the application site to be visualized. A prototype device filled with a solution of 0.025% allura red dye was applied to the gel and a volume of 100-300 microliters of dye was injected. A second device lacking the needles was also used as a control.
This highlights the efficacy of the microneedle device in deeper tissue penetration of the model drug compared to simple diffusion (simulated by the control device shown in FIGS. 10 A and B).

insulin aspart
Hypoglycemic response (blood glucose versus post-injection time) ([1]; colon, 20 units, microneedle prototype, one experiment): hypoglycemic response
Hypoglycemic response (blood glucose versus post-injection time) ([1]; duodenum, 10 units, Carr-Locke needle, one experiment): hypoglycemic response
Time to hypoglycemic response after administration ([1]; insulin injections, stomach, duodenum): 20 to 40 min
Hypoglycemic response ([1]; insulin release without the use of needles (control, 10 units)): did not induce a hypoglycemic (low glucose) response
Hypoglycemic response (blood glucose versus post-injection time) ([1]; stomach (transgastric), 10 units, Carr-Locke needle, 3 separate experiments): hypoglycemic response
Glucose levels after insulin enema ([2]; absence of an abrasion): did not decrease
Time to decrement in serum glucose after administration ([2]; rectal mucosa with abrasion): 20 to 30 min
Serum glucose level after insulin enema ([2]; rectal mucosa with abrasion, baseline glucose 80-82 mg/dL): 60 mg/dL

Infliximab
Known Toxic Levels ([3]; no direct toxic effect observed): >20 mg/kg no

COc1cc(S(=O)(=O)[O-])c(C)cc1N=Nc1c(O)ccc2cc(S(=O)(=O)[O-])ccc12.[Na+].[Na+] [allura red dye, allura red]
Permeation of dye into gel matrix ([4]; control device lacking needles): expulsion of the dye over the gel surface
Permeation of dye into gel matrix ([4]; device with microneedles, 100-300 microliters): enabled permeation of the dye into the gel matrix

CC[C@H](C)[C@@H]1NC(=O)[C@H](Cc2ccc(O)cc2)NC(=O)[C@@H](N)CSSC[C@@H](C(=O)N2CCC[C@H]2C(=O)N[C@@H](CC(C)C)C(=O)NCC(N)=O)NC(=O)[C@H](CC(N)=O)NC(=O)[C@H](CCC(N)=O)NC1=O [Oxytocin]
Known Toxic Levels ([3]; in vivo): >10,000 units/kg

CC[C@H](C)[C@H](NC(=O)[C@@H]1CCCN1C(=O)CNC(=O)[C@H](Cc1ccccc1)NC(=O)[C@H](CC(N)=O)NC(=O)[C@H](CC(N)=O)NC(=O)[C@H](CO)NC(=O)[C@H](CO)NC(=O)[C@H](Cc1c[nH]cn1)NC(=O)[C@@H](NC(=O)[C@H](CC(C)C)NC(=O)[C@H](Cc1ccccc1)NC(=O)[C@H](CC(N)=O)NC(=O)[C@H](C)NC(=O)[C@H](CC(C)C)NC(=O)[C@H](CCCNC(=N)N)NC(=O)[C@H](CCC(N)=O)NC(=O)[C@@H](NC(=O)[C@H](C)NC(=O)[C@@H]1CSSC[C@H](NC(=O)[C@@H](N)CCCCN)C(=O)N[C@@H](CC(N)=O)C(=O)N[C@@H]([C@@H](C)O)C(=O)N[C@@H](C)C(=O)N[C@@H]([C@@H](C)O)C(=O)N1)[C@@H](C)O)C(C)C)C(=O)N[C@@H](CC(C)C)C(=O)N1CCC[C@H]1C(=O)N1CCC[C@H]1C(=O)N[C@H](C(=O)N[C@@H](CC(N)=O)C(=O)N[C@H](C(=O)NCC(=O)N[C@@H](CO)C(=O)N[C@@H](CC(N)=O)C(=O)N[C@H](C(=O)N[C@@H](Cc1ccc(O)cc1)C(N)=O)[C@@H](C)O)C(C)C)[C@@H](C)O [Pramlintide]
Known Toxic Levels ([3]; in vivo): >600 µg/kg/day

Rituximab
Known Toxic Levels ([3]; in vivo): >5 g/animal

Erythropoietin
Known Toxic Levels ([3]; in vivo): >100,000 units

Etanercept
Known Toxic Levels ([3]; in vivo): >1000 mg/animal

CCCC1O[C@@H]2C[C@H]3[C@@H]4CCC5=CC(=O)C=C[C@]5(C)[C@H]4[C@@H](O)C[C@]3(C)[C@]2(C(=O)CO)O1 (some centres unmarked) [Budesonide]
Known Toxic Levels ([3]; in vivo): 3200 mg/kg
